Data from EP1149907A1, “EDG8 receptor, its preparation and use” (Aventis Pharma Deutschland GmbH, priority 2000, dated 2001).

Columns and labels:
Assay in all cases: FLIPR assay of intracellular Ca2+ mobilization in transiently transfected CHO cells
[1] = tested on: human EDG8, SEQ ID NO. 2; format: cell-based; conditions: for increase in intracellular Ca2+ ([Ca2+]i): CHO cells transiently transfected with EDG8 and G-protein α subunits G16 and Gqi5, lipids applied at 10, 100 and 1000 nM (Fig.3)
Description: Fig.2 depicts measurement of the intracellular Ca2+ concentration, mediated by S1P via the different S1P-receptors EDG1, 3, 5, 6 and the putative S1P-receptor EDG8, cotransfected in CHO cells with empty vector DNA as a control or various G-protein α subunits. Intracellular Ca2+ concentrations were recorded as real time measurements using the Fluorescence plate imaging reader (FLIPR, Molecular Devices). […] As already known for a large number of Gq-coupled receptors, coexpression of Gaq augments the EDG1 and 5-mediated Ca2+-release as compared with the Ca2+ signal induced by stimulation of endogeneous Gaq. […] The reason for this discrepancy could be the cellular background, as Yamazaki Y. et al. (2000) reported that the Ca2+ signal can be completely abolished in the presence of pertussis toxin (PTX), indicating the involvement of Gi-type G-proteins. In this case the Ca2+ signal would be elicited by bg, released from activated Gaibg heterotrimers. The Gαi-induced Ca2+ signals are known to be much smaller in intensity as compared with the Ca2+ signals induced by bona-fide Gq-linked receptors (Kostenis et al., 1997a; Kostenis et al., 1997b). It may be that detection of such Ca2+ concentrations is beyond the sensitivity of the FLIPR system. […] To check, whether the EDG8 receptor also reacts to related lysophospholipid mediators, we examined the abilities of lysophosphatidic acid (LPA), dihydrosphingosin 1-phosphate (DHS1P), sphingosylphosphorylcholine (SPC) and lysophosphatidylcholine (LPC) to increase intracellular Ca2+ in CHO cells transiently transfected with the EDG8 receptor and the G-protein α subunits G16 and Gqi5 (Fig.3).
(§1) Fig.2: Mobilization of intracellular Ca^2+ by S1P mediated by the EDG1, 3, 5 and 8 receptor in CHO cells, cotransfected with empty vector DNA as a control or the indicated G-protein α subunits. Agonist-mediated changes of intracellular Ca^2+ were measured with the FLIPR using the Ca^2+-sensitive dye FLUO4. Fluorescence of transfected cells loaded with FLUO4 was recorded before and after addition of S1P, applied in the indicated concentrations. Data are expressed as means of quadruplicate determinations in a single experiment. An additional experiment gave similar results.
Fig.3: Effects of S1P, LPA and related lysophospholipid mediators on EDG8-mediated increase in intracellular Ca^2+ measured with the FLIPR as described in the legend of […]. The different lipids were applied in concentrations of 10, 100 and 1000 nM, respectively. Data are means of quadruplicate determinations of a representative experiment. Two additional experiments gave similar results.
CHO-K1 cells were grown in basal ISCOVE medium supplemented with 10% fetal bovine serum at 37°C in a humidified 5% CO2 incubator. For transfections, 2 x 10^5 cells were seeded into 35-mm dishes. About 24 hr later cells were transiently transfected at 50-80% confluency with the indicated receptor and G-protein constructs (1µg of plasmid DNA each) using the Lipofectamine transfection reagent and the supplied protocol (GIBCO). 18-24 hr after transfection cells were seeded into 96well plates at a density of 50.000 cells per well and cultured for 18-24 additional hr until used in the functional FLIPR assays. The cDNA for Gα16 was cloned from TF1 cells by RT-PCR and ligated into the pCDNA1.1 mammalian expression vector (Invitrogen). Murine wild type Gαq was cloned from cells by RT-PCR and inserted into the BamHI-NsiI-sites of pCDNA1.1. To create the C-terminally modified Gαqi5 subunit, in which the last five aa of wt Gαq were replaced with the correspoding Gαi sequence, a 175-bp Bg/II-NsiI fragment was replaced, in a two piece ligation, with a synthetic DNA fragment, containing the desired codon changes. The correctness of all PCR-derived sequences was verified by sequencing in both directions.
Twenty-four hours after transfection, cells were splitted into 96-well, black-wall microplates (Corning) at a density of 50,000 cells per well. […]

[2] = tested on: EDG1; format: cell-based, human; conditions: CHO cells transfected with EDG1, no cotransfected G-protein α subunit (Fig.2)
Description: (§2) Fig.2 depicts measurement of the intracellular Ca2+ concentration, mediated by S1P via the different S1P-receptors EDG1, 3, 5, 6 and the putative S1P-receptor EDG8, cotransfected in CHO cells with empty vector DNA as a control or various G-protein α subunits. Intracellular Ca2+ concentrations were recorded as real time measurements using the Fluorescence plate imaging reader (FLIPR, Molecular Devices). […] As already known for a large number of Gq-coupled receptors, coexpression of Gaq augments the EDG1 and 5-mediated Ca2+-release as compared with the Ca2+ signal induced by stimulation of endogeneous Gaq. […] The reason for this discrepancy could be the cellular background, as Yamazaki Y. et al. (2000) reported that the Ca2+ signal can be completely abolished in the presence of pertussis toxin (PTX), indicating the involvement of Gi-type G-proteins. In this case the Ca2+ signal would be elicited by bg, released from activated Gaibg heterotrimers. The Gαi-induced Ca2+ signals are known to be much smaller in intensity as compared with the Ca2+ signals induced by bona-fide Gq-linked receptors (Kostenis et al., 1997a; Kostenis et al., 1997b). It may be that detection of such Ca2+ concentrations is beyond the sensitivity of the FLIPR system. […]
as §1, with “An additional experiment gave similar results.” left out

[3] = tested on: EDG5; format: cell-based, human; conditions: CHO cells transfected with EDG5, no cotransfected G-protein α subunit (Fig.2)
Description: as §2
as §1, with “An additional experiment gave similar results.” left out

[4] = tested on: EDG3; format: cell-based, human; conditions: CHO cells transfected with EDG3, no cotransfected G-protein α subunit (Fig.2)
Description: as §2
as §1, with “An additional experiment gave similar results.” left out

[5] = tested on: EDG6; format: cell-based, human; conditions: CHO cells transfected with EDG6, no cotransfected G-protein α subunit
Description: as §2

Compound: CCCCCCCCCCCCCCC[C@@H](O)[C@@H](N)COP(=O)(O)O [DHS1P, dihydrosphingosin 1-phosphate]
- increase in intracellular Ca2+ ([Ca2+]i) [1]: evoked [Ca2+]i increases in concentrations of 100 and 1000 nM

Compound: CCCCCCCC/C=C\CCCCCCCC(=O)OCC(O)COP(=O)(O)O (centres unmarked) [LPA, lysophosphatidic acid]
- increase in intracellular Ca2+ ([Ca2+]i) [1]: evoked [Ca2+]i increases in concentrations of 100 and 1000 nM

Compound: CCCCCCCCCCCCC/C=C/[C@@H](O)[C@@H](N)COP(=O)(O)O [S1P, sphingosin 1-phosphate]
- mobilization of intracellular Ca2+ [2]: elicited intracellular Ca2+ signals
- mobilization of intracellular Ca2+ [3]: elicited intracellular Ca2+ signals
- mobilization of intracellular Ca2+ [4]: elicited intracellular Ca2+ signals
- mobilization of intracellular Ca2+ ([1]; CHO cells cotransfected with EDG8 and Gα16 or Gαqi5 (Fig.2)): gained the ability to mobilize Ca2+
- mobilization of intracellular Ca2+ ([1]; CHO cells transfected with EDG8, no cotransfected G-protein α subunit (Fig.2)): did not release intracellular Ca2+
- increase in intracellular Ca2+ ([Ca2+]i) [1]: most potent activator of EDG8
- mobilization of intracellular Ca2+ [5]: failed to detect a significant Ca2+ increase above basal levels

Compound: CCCCCCCCCCCCC/C=C/[C@@H](O)[C@@H](N)COP(=O)([O-])OCC[N+](C)(C)C [SPC, sphingosylphosphorylcholine]
- increase in intracellular Ca2+ ([Ca2+]i) [1]: failed to generate any significant response in concentrations up to 1 µM

Compound: lysophosphatidylcholine [LPC]
- increase in intracellular Ca2+ ([Ca2+]i) [1]: failed to generate any significant response in concentrations up to 1 µM
